Biological target: Complement factor I (Homo sapiens) (UniProt P05156)
Experiment: In vitro activity against human Complement factor I

Complement factor I (Homo sapiens), sequence (P05156 whole entry, looked up): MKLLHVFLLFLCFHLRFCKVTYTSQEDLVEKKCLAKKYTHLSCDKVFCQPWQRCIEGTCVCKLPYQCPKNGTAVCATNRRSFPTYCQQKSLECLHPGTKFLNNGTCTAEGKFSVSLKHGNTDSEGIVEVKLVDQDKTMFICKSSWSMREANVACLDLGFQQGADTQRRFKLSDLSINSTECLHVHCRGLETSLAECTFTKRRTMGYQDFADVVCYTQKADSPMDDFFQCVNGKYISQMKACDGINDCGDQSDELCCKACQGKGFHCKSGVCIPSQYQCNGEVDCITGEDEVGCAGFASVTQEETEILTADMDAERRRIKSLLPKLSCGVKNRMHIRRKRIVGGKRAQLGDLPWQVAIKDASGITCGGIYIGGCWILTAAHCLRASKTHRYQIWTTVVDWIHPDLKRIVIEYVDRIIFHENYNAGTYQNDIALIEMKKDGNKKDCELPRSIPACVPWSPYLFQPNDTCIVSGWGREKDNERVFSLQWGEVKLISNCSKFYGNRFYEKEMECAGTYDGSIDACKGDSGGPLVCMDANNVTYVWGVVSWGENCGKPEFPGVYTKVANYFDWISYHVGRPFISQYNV

- IC50: 44 µM
Structure (SMILES): CS(=O)(=O)c1ccccc1-c1ccc(NC(=O)c2cc(C(F)(F)F)nn2-c2cccc(CN)c2)c(F)c1

From BindingDB's records for doi:10.1021/jm000409z (Dupont Pharmaceuticals, 2001)
